Source: article PMC11953117 (Cancer Chemotherapy and Pharmacology, 2025)
Where two headings read alike, the source gives them in different places.

Columns and labels:
[1] = Relative dose intensity (RDI) of capivasertib monotherapy; type: in vivo, human
Procedure: (§1) The exposure–response analyses were conducted using a subset of patients from the PopPK analysis where capivasertib was used as monotherapy. […] As different schedules were assessed between and within studies, the exposure metrics were derived for the last dose of the last dosing day in the second week of treatment (i.e. on days 14, 11, and 9 for the continuous, [4/3] and [2/5] schedules, respectively), to ensure SS conditions, using the planned dose. […] The relative dose intensity (RDI) was calculated as the percentage of the average weekly dose relative to the PWD to examine the tolerability of capivasertib monotherapy at the given dosing schedules.

[2] = design: method as in PMID 29066505, PMID 26931343; conditions: monotherapy, cited from earlier work; for recommended phase 2 dose: based on DLTs
AKT = tested on: AKT; design: method as in PMID 29066505; conditions: 480 mg BID [4/3] versus 320 mg continuous dosing; cited from earlier work
[3] = Capivasertib exposure metrics at steady state projected with PopPK model, patients with solid tumors; type: in vivo; conditions: human, plasma, oral; for concentration at 12 h: read-out: Cmin
Procedure: Study 1 (NCT01226316) was a phase 1 open-label multipart study. […] The duration of the treatment cycles was 21 days. […] [18]. […] [18, 25, 39].
Study 4 (NCT01353781) was a phase 1 dose-escalation study in Japanese patients with advanced solid malignancies.
as §1

[4] = 80 mg, Study 1, Continuous BID, PWD 1120 mg, N=5, median (range)
[5] = 80 mg, Study 4 (Japanese patients), Continuous BID, PWD 1120 mg, N=3, median (range)
[6] = 240 mg, Study 4 (Japanese patients), Continuous BID, PWD 3360 mg, N=7, median (range)
[7] = 320 mg, Study 4 (Japanese patients), Continuous BID, PWD 4480 mg, N=6, median (range)
[8] = 360 mg, Study 4 (Japanese patients), [4/3] BID, PWD 2880 mg, N=8, median (range)

For `NC1(C(=O)N[C@@H](CCO)c2ccc(Cl)cc2)CCN(c2ncnc3[nH]ccc23)CC1` [capivasertib, 4-amino-N-[(1S)-1-(4-chlorophenyl)-3-hydroxypropyl]-1-(7H-pyrrolo[2,3-d]pyrimidin– 4-yl)piperidine-4-carboxamide], which RDI ([1]; OAK, [4/3] BID, 480 mg, PWD 3840 mg, N=30, median (range)) is on record?
Its RDI is 100 (45.6–115.4) %.

What about the RDI ([1]; Study 1, Continuous BID, 80 mg, PWD 1120 mg, N=5, median (range)) of the same compound?
The RDI was 100.0 (95.9–100.6) %.

And the RDI ([1]; Study 1, Continuous BID, 160 mg, PWD 2240 mg, N=5, median (range))?
Its RDI is 97.6 (83.5–102.3) %.

What about the RDI ([1]; Study 1, Continuous BID, 240 mg, PWD 3360 mg, N=6, median (range)) of the same compound?
The RDI was 100.3 (98.8–100.9) %.

What about the RDI ([1]; Study 1, Continuous BID, 320 mg, PWD 4480 mg, N=12, median (range)) of the same compound?
The RDI was 98.1 (37.2–102.4) %.

What about the RDI ([1]; Study 1, Continuous BID, 400 mg, PWD 5600 mg, N=11, median (range)) of the same compound?
The RDI was 80.3 (55.4–102.1) %.

And the RDI ([1]; Study 1, Continuous BID, 480 mg, PWD 6720 mg, N=6, median (range))?
Its RDI is 50.2 (45.3–83.3) %.

What about the RDI ([1]; Study 1, Continuous BID, 600 mg, PWD 8400 mg, N=2, median (range)) of the same compound?
The RDI was 103.1 (100–106.2) %.

What about the RDI ([1]; Study 1, [2/5] BID, 640 mg, PWD 2560 mg, N=8, median (range)) of the same compound?
The RDI was 94.0 (80.9–109.1) %.

What about the RDI ([1]; Study 1, [2/5] BID, 800 mg, PWD 3200 mg, N=14, median (range)) of the same compound?
Its RDI is 101.1 (42.5–133.3) %.

What about the RDI ([1]; Study 1, [4/3] BID, 480 mg, PWD 3840 mg, N=127, median (range)) of the same compound?
Its RDI is 97.9 (26.4–138.9) %.

And the RDI ([1]; Study 1, [4/3] BID, 640 mg, PWD 5120 mg, N=10, median (range))?
The RDI was 100.0 (70.5–122.2) %.

What about the RDI ([1]; Study 4 (Japanese patients), Continuous BID, 80 mg, PWD 1120 mg, N=3, median (range)) of the same compound?
Its RDI is 100.0 (88.7–102.3) %.

What about the RDI ([1]; Study 4 (Japanese patients), Continuous BID, 240 mg, PWD 3360 mg, N=7, median (range)) of the same compound?
The RDI was 100.0 (41.9–106.7) %.

And the RDI ([1]; Study 4 (Japanese patients), Continuous BID, 320 mg, PWD 4480 mg, N=6, median (range))?
Its RDI is 91.5 (59.3–101.1) %.

What about the RDI ([1]; Study 4 (Japanese patients), Continuous BID, 400 mg, PWD 5600 mg, N=5, median (range)) of the same compound?
Its RDI is 72.1 (51.4–85.7) %.

And the RDI ([1]; Study 4 (Japanese patients), [2/5] BID, 640 mg, PWD 2560 mg, N=6, median (range))?
The RDI was 111.2 (100–119) %.

What about the RDI ([1]; Study 4 (Japanese patients), [4/3] BID, 360 mg, PWD 2880 mg, N=8, median (range)) of the same compound?
The RDI was 107.9 (91.4–112) %.

What about the RDI ([1]; Study 4 (Japanese patients), [4/3] BID, 480 mg, PWD 3840 mg, N=6, median (range)) of the same compound?
The RDI was 107.9 (79.1–108.6) %.

And the RDI ([1]; [4/3] and [2/5] schedules at all dose levels)?
Its RDI is > 90%.

And the RDI ([1]; continuous schedule, 400 and 480 mg doses)?
The RDI was ≤ 80%.

What about the “recommended phase 2 dose” value ([2]; [2/5] schedule) of the same compound?
Its value is 640 mg BID.

And the “recommended phase 2 dose” value ([2]; [4/3] schedule)?
The value was 480 mg BID.

And the “recommended phase 2 dose” value ([2]; continuous schedule)?
The value was 320 mg BID.

What about the “dose-limiting toxicities (DLTs)” value ([2]; first-in-human study) of the same compound?
Its value is “diarrhea, rash, and hyperglycemia”.

What about the “target engagement in tumor tissue” value (AKT) of the same compound?
Its value is “greater target engagement”.

And the AUC ([3]; 80 mg, Study 1, Continuous BID, 80 mg, PWD 1120 mg, N=5, median (range), read-out: AUCss(0–12 h))?
Its AUC is 870 ng·h/mL.

What about the concentration at 12 h ([3]; 80 mg, Study 1, Continuous BID, 80 mg, PWD 1120 mg, N=5, median (range)) of the same compound?
Its concentration at 12 h is 30 ng/mL.

What about the AUC at 1 week [3, 4] of the same compound?
The AUC at 1 week was 12200 ng·h/mL.

And the Cmax [3, 4]?
The Cmax was 150 ng/mL.

What about the AUC ([3]; 80 mg, Study 4 (Japanese patients), Continuous BID, 80 mg, PWD 1120 mg, N=3, median (range), read-out: AUCss(0–12 h)) of the same compound?
The AUC was 1480 ng·h/mL.

And the concentration at 12 h ([3]; 80 mg, Study 4 (Japanese patients), Continuous BID, 80 mg, PWD 1120 mg, N=3, median (range))?
Its concentration at 12 h is 60 ng/mL.

What about the AUC at 1 week [3, 5] of the same compound?
Its AUC at 1 week is 20700 ng·h/mL.

And the Cmax [3, 5]?
The Cmax was 220 ng/mL.

What about the AUC ([3]; 160 mg, Study 1, Continuous BID, 160 mg, PWD 2240 mg, N=5, median (range), read-out: AUCPWD) of the same compound?
Its AUC is 41800 ng·h/mL.

And the AUC ([3]; 160 mg, Study 1, Continuous BID, 160 mg, PWD 2240 mg, N=5, median (range), read-out: AUCss(0–12 h))?
The AUC was 2990 ng·h/mL.

And the concentration at 12 h ([3]; 160 mg, Study 1, Continuous BID, 160 mg, PWD 2240 mg, N=5, median (range))?
The concentration at 12 h was 110 ng/mL.

What about the Cmax ([3]; 160 mg, Study 1, Continuous BID, PWD 2240 mg, N=5, median (range)) of the same compound?
The Cmax was 420 ng/mL.

And the AUC ([3]; 240 mg, Study 1, Continuous BID, 240 mg, PWD 3360 mg, N=6, median (range), read-out: AUCPWD)?
Its AUC is 44700 ng·h/mL.

What about the AUC ([3]; 240 mg, Study 1, Continuous BID, 240 mg, PWD 3360 mg, N=6, median (range), read-out: AUCss(0–12 h)) of the same compound?
Its AUC is 3190 ng·h/mL.

And the concentration at 12 h ([3]; 240 mg, Study 1, Continuous BID, 240 mg, PWD 3360 mg, N=6, median (range))?
The concentration at 12 h was 110 ng/mL.

And the Cmax ([3]; 240 mg, Study 1, Continuous BID, PWD 3360 mg, N=6, median (range))?
The Cmax was 530 ng/mL.

And the AUC ([3]; 240 mg, Study 4 (Japanese patients), Continuous BID, 240 mg, PWD 3360 mg, N=7, median (range), read-out: AUCss(0–12 h))?
The AUC was 5220 ng·h/mL.

And the concentration at 12 h ([3]; 240 mg, Study 4 (Japanese patients), Continuous BID, 240 mg, PWD 3360 mg, N=7, median (range))?
Its concentration at 12 h is 170 ng/mL.

And the AUC at 1 week [3, 6]?
The AUC at 1 week was 73000 ng·h/mL.

What about the Cmax [3, 6] of the same compound?
The Cmax was 820 ng/mL.

What about the AUC ([3]; 320 mg, Study 1, Continuous BID, 320 mg, PWD 4480 mg, N=12, median (range), read-out: AUCPWD) of the same compound?
The AUC was 82000 ng·h/mL.

And the AUC ([3]; 320 mg, Study 1, Continuous BID, 320 mg, PWD 4480 mg, N=12, median (range), read-out: AUCss(0–12 h))?
Its AUC is 5860 ng·h/mL.

And the concentration at 12 h ([3]; 320 mg, Study 1, Continuous BID, 320 mg, PWD 4480 mg, N=12, median (range))?
The concentration at 12 h was 200 ng/mL.

What about the Cmax ([3]; 320 mg, Study 1, Continuous BID, PWD 4480 mg, N=12, median (range)) of the same compound?
Its Cmax is 870 ng/mL.

And the AUC ([3]; 320 mg, Study 4 (Japanese patients), Continuous BID, 320 mg, PWD 4480 mg, N=6, median (range), read-out: AUCss(0–12 h))?
The AUC was 6560 ng·h/mL.

And the concentration at 12 h ([3]; 320 mg, Study 4 (Japanese patients), Continuous BID, 320 mg, PWD 4480 mg, N=6, median (range))?
Its concentration at 12 h is 150 ng/mL.

And the AUC at 1 week [3, 7]?
Its AUC at 1 week is 91800 ng·h/mL.

What about the Cmax [3, 7] of the same compound?
The Cmax was 1380 ng/mL.

What about the AUC ([3]; 360 mg, Study 4 (Japanese patients), [4/3] BID, 360 mg, PWD 2880 mg, N=8, median (range), read-out: AUCss(0–12 h)) of the same compound?
The AUC was 6100 ng·h/mL.

What about the concentration at 12 h ([3]; 360 mg, Study 4 (Japanese patients), [4/3] BID, 360 mg, PWD 2880 mg, N=8, median (range)) of the same compound?
The concentration at 12 h was 210 ng/mL.

What about the AUC at 1 week [3, 8] of the same compound?
The AUC at 1 week was 48800 ng·h/mL.

And the Cmax [3, 8]?
The Cmax was 960 ng/mL.

What about the AUC ([3]; 400 mg, Study 1, Continuous BID, 400 mg, PWD 5600 mg, N=11, median (range), read-out: AUCPWD) of the same compound?
Its AUC is 81000 ng·h/mL.
